Row | SMILES | melting point [°C]
1 | CCOC(=O)CCCCc1cccc(-c2nc(=O)c3ccccc3s2)n1 | 87 to 88
2 | CC1=CSC(n2ccc(OCc3ccc(C(F)(F)F)o3)cc2=O)N1C(=O)O (centres undefined) | 261 to 263
3 | CCCc1nc2c(N)nc3ccccc3c2n1CCCCNC(=O)c1ccccc1 | 173 to 174
4 | COC(=O)c1cc([N+](=O)[O-])ccc1-c1ccc([N+](=O)[O-])cc1C(=O)OC | 176 to 177
5 | FC(F)(F)c1ccc(-c2nc(-c3ccccn3)cs2)cc1 | 123 to 127
6 | Cn1ncnc1COc1nc2c(cc1-c1ccco1)nnn2-c1ccccc1F | 170 to 173
7 | COc1ccc(C(=O)c2ccccc2)c([N+](=O)[O-])c1O | 137 to 139
8 | CC(=O)N1CCC(C(=O)Nc2ccc(-n3nc(C(F)(F)F)cc3C(F)(F)F)cc2)CC1 | 94 to 95
9 | COc1ccc(Cn2cnc3c(-c4ccco4)nc(C#C[Si](C)(C)C)nc32)cc1 | 155 to 157
10 | COc1cc(OC)c2c(=O)c3oc4cc(OC)ccc4c3oc2c1 | 272 to 274
11 | C=C1CC(COc2cccc3ccc(C)nc23)(c2ccc(Cl)cc2)OC1=O (centres undefined) | 129 to 130
12 | CCCCCCCc1ccc(NC2=NCCS2)cc1 | 81 to 82
13 | N#Cc1ccc(-c2n[nH]c3c2Cc2ccccc2-3)cc1 | 245
14 | Nc1ccc(Cn2ncnn2)cc1 | 86 to 87
15 | O=C1Nc2ccccc2SC1CCCCCl (centres undefined) | 111 to 112
16 | CCn1ncc2c(NCc3ccc(OC)c(OC)c3)c3ccccc3nc21 | 169 to 171
17 | Cc1cc(-c2cc(C(F)(F)F)n3ncc(-c4nc(-c5ccc(S(N)(=O)=O)cc5)no4)c3n2)ccc1C(F)(F)F | 273
18 | O=C(Nc1ccc(F)c(C(F)(F)F)c1)Nc1ccc(OCc2ccccc2)cc1O | 188 to 191
19 | Cc1ccc(S(=O)(=O)N2C[C@@H]3C[C@H]2CN3C)cc1 | 87 to 88
20 | COc1c(Br)c(CO)c(OC)c2ccccc12 | 115 to 117
21 | CC(C)c1[nH]n(-c2c(Cl)cc(Cl)cc2Cl)c2nc(Cc3ccc(NC(=O)N4CCN(C)CC4)cc3)nc(=O)c1-2 | 251 to 253
22 | COc1cccc2c(COCCC(c3ccccc3)c3ccccc3)coc12 | 147 to 149
23 | Cc1noc(NS(=O)(=O)c2ccccc2-c2ccccc2)c1Br | 145 to 147
24 | Cc1ccc(S(=O)(=O)N(NC=O)c2ccc(NC(=S)Oc3ccccc3)cc2)cc1 | 195 to 196

Row | SMILES | melting point [°C]
25 | Fc1ccc(-c2cc3[nH]ccn3n2)cc1 | 225 to 227
26 | O=C1c2ccccc2-c2nn(CCO)c3ccc(NCCNCCO)c1c23 | 209 to 211
27 | Fc1cccc(COc2ccc(Nc3ncnc4cc(C#Cc5ncccn5)sc34)cc2Cl)c1 | 236 to 240
28 | O=C(O)C(=O)Cc1ccc(-c2ccccc2)cc1 | 215 to 218
29 | CCOC1CCC(=O)N1S(=O)(=O)c1ccccc1 (centres undefined) | 112 to 113
30 | O=C(NCCCCOc1ccc(-n2ccnc2)cc1)c1ccc(F)cc1 | 122 to 123
31 | O=C(N[C@H](CC1CCCCC1)CN1CCN(c2ncccn2)CC1)C1CCCCC1 | 121 to 123
32 | OCCOc1nc2ncnc(NCc3ccco3)c2[nH]1 | 182 to 184
33 | Cc1nc2cnccc2n1-c1ccc(OCc2cccc(C(=O)Nc3nc4cc(F)ccc4s3)c2)cc1 | 244 to 246
34 | O=C(O)c1cccc(Oc2ccc(Br)cc2)c1 | 171 to 173
35 | Nc1cccc(NC(=O)c2ccc(CNC(=O)OCc3cccnc3)cc2)c1 | 156
36 | O=[N+]([O-])C1=C2N(Cc3ccc(Cl)nc3)CCN2C2CCC1O2 (centres undefined) | 149 to 150
37 | CC(=O)Nc1c(C(=O)c2ccccc2)[nH]c2cc(N)ccc12 | 219 to 221
38 | CC1CNc2c(C#N)cnn2C1c1cc(Cl)ccc1Cl (centres undefined) | 184 to 185
39 | Clc1nc(Cl)nc(N2CCc3ccccc32)n1 | 254 to 256
40 | CC1CN(c2ccccc2)C(=O)N(c2cccc(C(F)(F)F)c2)C1 (centres undefined) | 121 to 123
41 | Cc1ccc(C(=O)OC2CCN(Cc3ccccc3[N+](=O)[O-])CC2)cc1 | 86 to 87
42 | O=c1ccc(-c2c(-c3ccccc3)nn3ccccc23)nn1C1CCN(Cc2ccccc2)CC1 | 184 to 185
43 | O=C1CCC(CSc2ccccc2)C(=O)N1CN1CCCCC1 (centres undefined) | 63 to 66
44 | Brc1ccc(OCCCCCN2CCN(c3nccs3)CC2)cc1 | 73 to 75
45 | CCNC(=O)Nc1nc2cc(-c3cccnc3)ccn2n1 | 230 to 233
46 | CC(C)NC(=O)c1ccc(-c2cnc3[nH]c(=O)n(CC4CCCCC4)c3n2)cc1 | 264 to 268
47 | N#CC(C(=O)c1ccc(Cl)cc1)c1ccncc1 (centres undefined) | 225 to 235
48 | COc1ccc(C(=O)Nc2ccc3ccc(Oc4ccccc4C)nc3n2)cc1 | 153

Row | SMILES | melting point [°C]
49 | N#Cc1cccc(NC(=O)CN2CCC(Cc3ccccc3)CC2)c1 | 88 to 90
50 | CCCCCCCCc1ccc2nc(N)nc(N)c2c1C | 262 to 264
51 | O=C(NN1CCCCC1)NS(=O)(=O)c1ccc(CCN2C(=O)c3ccccc3C2(O)c2ccccc2)cc1 (centres undefined) | 228
52 | N#Cc1ccc(N2C(=O)N(CCO)C3(CCOCC3)C2=O)cc1C(F)(F)F | 196 to 197
53 | CC(CCCC(F)(C(F)(F)F)C(F)(F)F)C1CC(=O)C2=C3CCC4CC(O)CCC4(C)C3CCC21C (centres undefined) | 177 to 179
54 | O=C(O)CCc1oc(Sc2ccccc2)nc1-c1ccc(Cl)cc1 | 156 to 157
55 | Cc1cc(-c2cc(C(F)F)n3ncc(I)c3n2)ccc1Cl | 144
56 | O=C(Cl)N(OCc1ccccc1)C1c2ccccc2Oc2ccccc21 | 117
57 | COc1ccc2c(c1)C(=O)c1ccc(C(=O)O)cc1S2(=O)=O | 324 to 327
58 | CC(CN1CC=C(c2ccc(Cl)cc2)CC1)C(O)c1ccccc1 (centres undefined) | 103 to 105
59 | CN1CCC(=C2c3ccccc3CCn3ncnc32)CC1 | 127
60 | Cn1nc(O)c(Cl)c1Cl | 212 to 216
61 | Cn1nnnc1NCCSCc1csc(NC(=N)N)n1 | 80 to 83
62 | OC1Cc2ccccc2Sc2cc(F)c(F)cc21 (centres undefined) | 98 to 100
63 | O=C(O)CC1(S)C2CC3CC(C2)CC1C3 (centres undefined) | 178 to 180
64 | CCn1cnc2c(Nc3cccc(N)c3)nc(N[C@H]3CC[C@H](O)CC3)nc21 | 149 to 151
65 | CCCCC(C)OC(=O)Nc1ccc(-c2ncn(-c3ccc(OC(F)(F)F)cc3)n2)cc1 (centres undefined) | 111 to 113
66 | CCC(C(OC)OC)N(C1CCCCC1)C1CCCCC1 (centres undefined) | 73.5 to 74.2
67 | Cn1c2c(c3ccccc31)CCOC2(C)C | 96 to 97
68 | FC1(F)c2ccccc2C(F)(F)C(F)(F)c2ccccc21 | 53 to 55
69 | COCCNC(=O)c1cccc(CN2C(=O)C3(COc4cc5c(cc43)CCO5)c3ccccc32)c1 (centres undefined) | 72 to 73
70 | Cc1cccn2c(C)c(-c3ccc4c(c3)NC(=O)C(C)O4)nc12 (centres undefined) | 249 to 250
71 | COc1ccccc1N1CCN(C(=O)c2ccccc2C(c2ccc(O)cc2)c2ccc(O)cc2)CC1 | 229 to 231

Results, then the molecule that gave them:

Row | melting point [°C] | SMILES
72 | 44 to 46 | CCC(=O)Oc1ccc(C#N)cc1
73 | 143 to 144 | COc1cc(OC)c(C(C)=O)c(O)c1C
74 | 94 to 96 | CC(=O)C(C(=O)OC(C)(C)C)C(=O)c1ccc(C(=O)C(C(C)=O)C(=O)OC(C)(C)C)cc1 (centres undefined)
75 | 100 to 103 | COc1cccc(CNc2nc(NC[C@@H](C)O)nc3c2ncn3C(C)C)c1O
76 | 151 to 153 | CCOC(=O)c1cc(O)n(C)n1
77 | 124 to 126 | COc1ccccc1/C=C/C(=O)/C=C/c1ccccc1OC
78 | > 230 | CN1C(=O)C(=Cc2ccc(O)c(C(C)(C)C)c2)SC1=S
79 | 106 to 108 | COc1ccc(C[C@](C)(N[C@@H](C(N)=O)c2ccccc2)C(N)=O)cc1
80 | 219 to 220 | CCCc1ccc2nc(C(F)(F)F)c(S(=O)(=O)N=CN(C)C)n2n1
81 | 238 to 240 | COc1cc(NC(=O)Nc2c(-c3ccccc3C)c3cc(C)c(C)cc3oc2=O)cc(OC)c1OC(C)=O
82 | 135 to 142 | COC(=O)CC[C@H](NC(=O)c1ccc(NCCCc2c(NC(C)=O)nc(NC(C)=O)[nH]c2=O)cc1)C(=O)OC
83 | 49.1 to 50.2 | CC(C)CCCC(C)CCCC(C)CCCC(C)(O)C(CO)NCCO (centres undefined)
84 | 105 | COC(C)=CC(=O)NC1(C)CCCCC1
85 | 164 to 166 | CCCCN(Cc1ccc(-c2ccccc2-c2nnn[nH]2)cc1)c1nc(C)ncc1C(=O)OCC
86 | 164 | COC(=O)c1cc(C(=O)c2c(C)c(OC)c3c(OCC(=O)O)cccn23)ccc1N
87 | 205 to 207 | CCn1nc2c(N)nc3ccccc3c2c1CC1(F)CCN(C(=O)NC(C)C)CC1
88 | 180 to 182 | Nc1nc(-c2ccc(CCNC(=O)C(F)(F)F)cc2)cs1

Row | melting point [°C] | SMILES
89 | 77.5 to 79 | CCc1nc(C)c(C(C)(O)c2ccsc2)o1 (centres undefined)
90 | 99 to 101 | CCC(=O)NC1CCc2ccccc2C1 (centres undefined)
91 | 78 to 80 | C#CCOC(=O)C=CC(=O)OCC#C
92 | 50 to 51 | CC(C)(C)C(Cl)=NNc1cc(Cl)ccc1Cl
93 | 174 to 176 | Cc1ccc2c(c1)cc(C(=O)O)n2CC(=O)OC(C)(C)C
94 | 38 to 39 | CCC(O)(c1ccccc1)c1cc(C)ccc1C (centres undefined)
95 | 157 to 158 | CC(=O)Nc1sc(C(=O)OCc2ccccc2)c(C)c1C(=O)OC(C)(C)C
96 | 72 to 74 | CN(C)C=CC(=O)CC(C)(C)C
97 | 171 to 172 | Cn1cc(-c2cc3cccnc3[nH]2)c2cc(C(=O)NCC(O)CO)ccc21 (centres undefined)
98 | 94.3 | COC(=O)/C=C/c1ccc(N(C)C(C)=O)nc1
99 | 270 | CC(C)C1NC(=O)C(CSSCC2NC(=O)C(C(C)C)NC2=O)NC1=O (centres undefined)
100 | 156 to 157 | CC(C)(C)c1cc(C(=O)c2ccccc2)cc(CN2CCC(O)CC2)c1O
101 | 77.7 to 78.5 | C=CC(C)(C)OC(=O)c1c(C)nc2c(cnn2CCCCC)c1N
102 | 253 to 258 | O=C(NCCCl)Nc1ccc2cn[nH]c2c1
103 | 153 to 154 | CCOC(=O)C(C)=NNc1ccc(Br)cc1
104 | 55 | CCCCCCCCC=CCCCCCCCCCCCCNC(=O)C=CC(=O)O
